Data as given in PMC6934184, “Selective DNA-PKcs inhibition extends the therapeutic index of localized radiotherapy and chemotherapy” (The Journal of Clinical Investigation, 2019).

Molecular target: T1, FYN A (Homo sapiens, UniProt P06241)
T1 construct: purchased Thermo Fisher Scientific (Life Technologies) SelectScreen
Assay: SelectScreen LanthaScreen
Assay type: binding
Settings: read-out: % displacement
Procedure, shortened: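 SelectScreen broad panel; activity (Z'LYTE, Adapta) plus binding formats. ATP: Km app for CSF1R Z'LYTE; 10 for CAMK1 Adapta. Readout = % per kinase.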

T1 sequence (P06241 whole entry): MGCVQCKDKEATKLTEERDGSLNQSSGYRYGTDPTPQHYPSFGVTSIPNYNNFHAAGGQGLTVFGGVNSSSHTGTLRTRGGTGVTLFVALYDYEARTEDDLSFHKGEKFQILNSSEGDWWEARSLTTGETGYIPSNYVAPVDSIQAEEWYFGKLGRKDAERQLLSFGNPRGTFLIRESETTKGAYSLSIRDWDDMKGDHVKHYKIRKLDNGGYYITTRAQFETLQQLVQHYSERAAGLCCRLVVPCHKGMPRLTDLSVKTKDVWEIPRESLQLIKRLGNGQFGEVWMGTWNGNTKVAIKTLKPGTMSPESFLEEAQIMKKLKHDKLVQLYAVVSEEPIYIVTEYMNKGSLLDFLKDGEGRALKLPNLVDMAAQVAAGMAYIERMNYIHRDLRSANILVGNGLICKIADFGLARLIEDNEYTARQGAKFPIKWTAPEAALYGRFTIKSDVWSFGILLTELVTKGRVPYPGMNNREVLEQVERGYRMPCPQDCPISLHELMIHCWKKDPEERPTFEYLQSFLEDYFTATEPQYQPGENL

CN(C(=O)CN1CCOCC1)c1ccc2sc3c(-c4cccc5c(=O)cc(N6CC7CCC(C6)O7)oc45)cccc3c2c1 [NU5455]
inhibition at 1 µM: 3.3%
